# Source: article PMC7287882, “Dual miRNases for Triple Incision of miRNA Target: Design Concept and Catalytic Performance” (Molecules, 2020)
# Legend:
# miR-155 = test: Ribonuclease activity assay, cleavage of miR-155; assay type: biochemical; settings: miRNA 1 µM, DC 20 µM, 37 °C
# Method: (§1) The ribonuclease activity of DCs was studied under two different buffer conditions: buffer (1) contained 50 mM Tris-HCl, pH 7.0, 200 mM KCl, 1 mM EDTA, which imitates intracellular conditions (e.g., pH and potassium ions concentration) and was used in a number of studies previously; and buffer (2) contained 20 mM Tris-HCl, pH 7.8, 40 mM KCl, 8 mM MgCl2, 1 mM DTT, 0.02 mg/mL BSA, which is recommended for in vitro reactions with RNase H (Figure 3 and Figure 4).
# Figure 3 Kinetics of cleavage of 5′-[^32P]-labeled miR-17, miR-18a, miR-155, miR-21 and miR-21_1 by corresponding DCs in the buffer (1), containing 50 mM Tris-HCl, pH 7.0, 200 mM KCl and 1 mM EDTA. (a–e) Radioautographs of 18% denaturing PAAG showing the cleavage products of miR-17, miR-18a, miR-155, miR-21 and miR-21_1, respectively. miRNA (1 µM) and corresponding DC (20 µM) were incubated at 37 °C for 72 h. Lanes Im and T1—imidazole ladder and partial RNA digestion with RNase T1, respectively; control–miRNA was incubated in the absence of the conjugate. The incubation time (in hours) is show at the top. SS gap–single-stranded region of miRNA formed upon hybridization with DC; (f) Kinetics of miRNAs cleavage by DCs depending on the incubation time. Data are presented as mean ± s.e.
# Figure 4 Kinetics of cleavage of 5′-[^32P]-labeled miR-17, miR-18a, miR-155, miR-21, and miR-21_1 by corresponding DCs in the buffer (2), containing 20 mM Tris-HCl, pH 7.8, 40 mM KCl, 8 mM MgCl2, 1 mM DTT, 0.02 mg/mL BSA. (a–e) Radioautographs of 18% denaturing PAAG showing the cleavage products of miR-17, miR-18a, miR-155, miR-21 and miR-21_1, respectively. miRNA (1 µM) and corresponding DC (20 µM) were incubated at 37 °C for 72 h. Lanes Im and T1–imidazole ladder and partial RNA digestion with RNase T1, respectively; control–miRNA was incubated in the absence of the conjugate. The incubation time (in hours) is shown at the top. SS gap–single-stranded region of miRNA formed upon hybridization with DC; (f) Kinetics of miRNAs cleavage by DCs. Data are presented as mean ± s.e.
# (§2) The reaction mixture (10 µL) contained 800 cpm (Cherenkov’s counting) of [^32P]-miRNA, 1 μM unlabeled miRNA, one of the conjugates at a concentration 10 or 20 μM and one of the buffers: 50 mM Tris-HCl, pH 7.0, 200 mM KCl, 1 mM EDTA–buffer (1) or 20 mM Tris-HCl, pH 7.8, 40 mM KCl, 8 mM MgCl2, 1 mM DTT, 0.02 mg/mL BSA–buffer (2). The mixture was incubated at 37 °C for 0–72 h and quenched by precipitation of RNA with 2% LiClO4 in acetone (90 µL). RNA was collected by centrifugation and dissolved in loading buffer (8 M urea, 0.025% bromophenol blue, 0.025% xylene cyanol). RNA cleavage products were analyzed in 18% PAAG/8M urea using TBE (100 mM Tris-borate, pH 8.3, 2 mM EDTA) as running buffer. To identify cleavage sites, an imidazole and T1-ladders produced by partial RNA cleavage with 2 M imidazole buffer (pH 7.0) and with RNase T1 [68], respectively, were run in parallel. To obtain quantitative data, gels were dried and analyzed using Molecular Imager FX. The total extent of RNA cleavage and the extent of RNA cleavage at each individual site were determined by using Quantity One software v.4.1 (Bio-Rad, Hercules, CA, USA).
# miR-21_1 = test: Ribonuclease activity assay, cleavage of modified miR-21_1; assay type: biochemical; settings: miRNA 1 µM, DC 20 µM, 37 °C
# Method: as §1
# Despite the high binding affinity of all DCs to their matching miRNA targets, miR-21 was not cleaved by the corresponding Dual conjugate (Figure 3d). The most probable reason for this was the absence of the pyrimidine-A sites sensitive towards cleavage by this type of conjugates within the single-stranded “gap” formed upon binding to conjugate. In order to verify this hypothesis, we tested the cleavage of the modified miR-21 sequence (miRNA-21_1) containing 2 substitutions in the gap region (AGACU → AUACA) to generate C-A and U-A bonds. Such replacement, indeed, led to a noticeable cleavage of the miR-21_1 target with miR-21-targeting DC at the introduced U11-A12 and C13-A14 sites (Figure 3e) with the cleavage efficiency reaching 18% (Figure 3f, Table S2).
# as §2
# [1] = buffer (1) 50 mM Tris-HCl pH 7.0, 200 mM KCl, 1 mM EDTA, 2 h
# [2] = buffer (1) 50 mM Tris-HCl pH 7.0, 200 mM KCl, 1 mM EDTA, 24 h
# [3] = buffer (1) 50 mM Tris-HCl pH 7.0, 200 mM KCl, 1 mM EDTA, 48 h
# [4] = buffer (2) 20 mM Tris-HCl pH 7.8, 40 mM KCl, 8 mM MgCl2, 1 mM DTT, 0.02 mg/mL BSA, 6 h
# [5] = buffer (2) 20 mM Tris-HCl pH 7.8, 40 mM KCl, 8 mM MgCl2, 1 mM DTT, 0.02 mg/mL BSA, 24 h
# [6] = buffer (2) 20 mM Tris-HCl pH 7.8, 40 mM KCl, 8 mM MgCl2, 1 mM DTT, 0.02 mg/mL BSA, 48 h
Substance,Total Cleavage (miR-155; [1]),"Total Cleavage (miR-155; buffer (1) 50 mM Tris-HCl pH 7.0, 200 mM KCl, 1 mM EDTA, 6 h)",Total Cleavage (miR-155; [2]),Total Cleavage (miR-155; [3]),"Total Cleavage (miR-155; buffer (1) 50 mM Tris-HCl pH 7.0, 200 mM KCl, 1 mM EDTA, 72 h)","Total Cleavage (miR-155; buffer (2) 20 mM Tris-HCl pH 7.8, 40 mM KCl, 8 mM MgCl2, 1 mM DTT, 0.02 mg/mL BSA, 2 h)",Total Cleavage (miR-155; [4]),Total Cleavage (miR-155; [5]),Total Cleavage (miR-155; [6]),"Total Cleavage (miR-155; buffer (2) 20 mM Tris-HCl pH 7.8, 40 mM KCl, 8 mM MgCl2, 1 mM DTT, 0.02 mg/mL BSA, 72 h)",rise of Kobs in buffer (2) compared to Kobs in buffer (1) (miR-155),Total Cleavage (miR-21_1; [1]),Total Cleavage (miR-21_1; [2]),Total Cleavage (miR-21_1; [3]),Total Cleavage (miR-21_1; [4]),Total Cleavage (miR-21_1; [5]),Total Cleavage (miR-21_1; [6]),rise of Kobs in buffer (2) compared to Kobs in buffer (1) (miR-21_1)
"ACCCCTAT–linker 1–[GRLRL]2–linker 2–TTAGCATTAA [miRNA-155-DC, Dual oligonucleotide-peptide conjugate targeted to miR-155: catalytic peptide [LRLRG]2 between two 2-aminoadenine-containing oligodeoxyribonucleotides]",0%,0%,"0,5%",16%,21%,15%,41%,56%,57%,72%,6 fold,–,–,–,–,–,–,–
"TCAACATC–linker 1–[GRLRL]2–linker 2–GATAAGCTA [miRNA-21-DC, Dual oligonucleotide-peptide conjugate targeted to miR-21: catalytic peptide [LRLRG]2 between two 2-aminoadenine-containing oligodeoxyribonucleotides]",–,–,–,–,–,–,–,–,–,–,–,"0,7%",10%,18%,14%,48%,63%,3 fold
